Entries after “also recorded” stand apart in the source; their conditions may differ.
How the values were obtained:
HAEC'S = assay: Intracellular ROS production (DHE fluorescence) in HAEC; format: cell-based; conditions: 0.1 nM peptide over night, oxidized LDL 100 μg protein/ml 30 min
Procedure: SHLPs suppress intracellular production of Reactive Oxygen Species (ROS). ROS production was monitored by following the conversion of the oxidant-sensitive dye dihydroethidine to the fluorescent ethidium (DHE) for measuring the cellular ability to produce Reactive Oxygen Species. HAEC'S plated on glass cover slips were incubated over night with 0.1 nM SHLP2 or SHLP6 versus regular cultured medium. For ROS measurement, cells were incubated for 30 min with 10 μM DHE in HBSS containing calcium magnesium and glucose at 37° c. Then cells were treated with Oxidized LDL 100 μg protein/ml for 30 minutes at 37° c. Samples were imaged under fluorescence microscope with a Texas Red filter corresponding to the fluorescence of DHE. Average fluorescence intensity was used to evaluate the changes of intracellular ROS generation, results are expressed in relative fluorescence unit (RFU) representing average intensity per cell area.

biotinylated-HN = biotinylated-HN (Homo sapiens, UniProt Q8IVG9); assay: Dot-blot binding to biotinylated-HN; conditions: 2, 5 or 10 nmol peptide dotted on nitrocellulose
Procedure: To test a dimerization hypothesis, we performed a dot-blot using biotinylated-HN. Two, 5 or 10 nmol IGF-I (negative control), HN (positive control) or SHLP peptide were dotted on to nitrocellulose membrane, and their ability to bind to biotinylated-HN was assessed immunologically. […] Specific interactions that occur may be determined using, e.g., dot blots with biotinylated SHLPs, and/or antibodies against specific SHLPs.

[1] = tested on: 22RV1 human prostate cancer cells; assay: Cell proliferation (cell number by MTT/MTS cleavage) in 22RV1 cells; format: cell-based; conditions: 22RV1, 100 nM peptide, 72 h
Procedure: SHLPs exert distinct effects on cell proliferation. Whether SHLPs have the capacity to influence cell proliferation, in addition to their intrinsic effects on apoptosis induction, was also investigated. Mouse NIT-1 insulinoma β-cells and 22RV1 human prostate cancer cells were serum starved for 24 h, followed by 72 h incubation with 100 nM scrambled control peptide, HN or SHLPs. Cell number, as a measure of cell proliferation, was assessed by cleavage of MTT substrate.
Pro-apoptotic effect on human prostate cancer cells in vitro. To assess the ability of SHLP6 to induce apoptosis in human prostate cancer cells, PC-3, 22RV1 or DU145 cells were incubated in serum free (SF) media for 24 h followed by 24 h incubation with 1 μM scrambled (control) peptide or SHLP6. Apoptosis was assessed by ELISA for fragmentation of histone-associated DNA. In each cell line tested, SHLP6 induced apoptosis by at least 2-fold (FIG. 2), confirming highly significant physiological effects of this novel peptide. To determine whether the effects of SHLP6 were specific to induction of apoptosis, or if it also elicited growth-inhibitory effects, PC-3, DU-145, 22RV1, LAPC4 and LNCaP cells were incubated in SF media for 24 h followed by 72 h incubation with 1 μM SHLP6. Cell number, as a measure of cell proliferation, was assessed by cleavage of MTS substrate.

[2] = tested on: Mouse NIT-1 insulinoma β-cells; assay: Apoptosis ELISA (fragmentation of histone-associated DNA) in NIT-1 cells; format: cell-based; conditions: for Effect on apoptosis in the presence of IGFBP-3: NIT-1, 1 μg/ml IGFBP-3 plus SHLP; for Effect of SHLP on apoptosis after PD98059 pre-treatment: NIT-1, 25 μM PD98059 (ERK1/2 inhibitor)
Procedure: SHLPs are anti-apoptotic in 22RV1 prostate cancer cells and NIT-1 β-cells. […] Mouse NIT-1 insulinoma β-cells and 22RV1 human prostate cancer cells were serum starved for 24 h, followed by 24 h incubation with 100 nM scrambled control peptide, HN or SHLPs. Apoptosis was assessed and quantified by ELISA for fragmentation of histone-associated DNA.
ERK activation is necessary for SHLP-induced inhibition of apoptosis in NIT-1 and 22RV1 cells. To determine the significance of ERK activation for apoptosis inhibition by SHLPs 2 and 3, PD98059 (PD), a specific chemical inhibitor of ERK1/2, was utilized. 22RV1 and NIT-1 cells were serum starved for 24 h in the presence or absence of 25 μM PD or 1 μM wortmannin (PI3-kinase inhibitor; negative control), followed by 24 h incubation with […] scrambled control peptide, SHLP2 or SHLP3. Apoptosis was then assessed by ELISA for fragmentation of histone-associated DNA.
Role of IGFBP-3 in effects of SHLPs on cell survival. Since IGFBP-3 is an important regulator of HN action, IGFBP-3 was tested for a possible role in regulating the anti- or pro-apoptotic actions of SHLPs. NIT-1 cells were incubated with 1 μg/ml IGFBP-3±0, 10, 100 or 1000 nM SHLP2 or 3 for 24 h. Apoptosis induction was assessed by ELISA for fragmentation of histone-associated DNA.
Co-incubation of SHLPs. To evaluate therapeutic uses involving co-treatment with SHLPs, the effect of HN±SHLPs on apoptosis was tested in both 22RV1 and NIT-1 cells. Cells were incubated in SF media for 24 h followed by 24 h with 100 nM HN, SHLP or peptide combination. Apoptosis was assessed by ELISA for fragmentation of histone-associated DNA. Cells were treated with all possible double peptide combinations. Although many peptide combinations had no additive or combined effects compared with the actions of the peptides individually, co-treatment with certain combinations led to unexpected functional changes (FIG. 11). […] Thus, specific SHLPs may either act on complementary pathways, or interact with each other, leading to change of function of one or both peptides. When the same experiments were repeated in NIT-1 cells, similar, but different, change of function effects were observed (FIG. 11B).

[3] = NIT-1, 0, 10, 100 or 1000 nM SHLP, 24 h

Sequence of biotinylated-HN (Q8IVG9 whole entry): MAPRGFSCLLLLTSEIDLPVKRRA

Row | Sequence | Intracellular ROS production (DHE fluorescence) (HAEC'S) | Binding to biotinylated-HN (dot-blot) (biotinylated-HN) | Cell number as a measure of cell proliferation [1] | Apoptosis (fragmentation of histone-associated DNA) [2, 3] | SHLP-induced cell survival after wortmannin pre-treatment ([2]; NIT-1, 1 μM wortmannin (PI3-kinase inhibitor)) | Effect on apoptosis in the presence of IGFBP-3 ([2]; 24 h) | Effect of SHLP on apoptosis after PD98059 pre-treatment [2] | Apoptosis (fragmentation of histone-associated DNA) ([2]; NIT-1, serum starved 24 h, then 24 h with 100 nM peptide)
1 | MGVKFFTLSTRFFPSVQRAVPLWTNS [SHLP2, small humanin-like peptide, mtDNA 2092-2170] | suppresses ROS production; also recorded: suppresses production of reactive oxygen species | weak interaction; also recorded: binds | much greater effect | dose dependent inhibition of apoptosis | not in NIT-1 cells | unaffected by the presence of IGFBP-3 | abrogated | significantly inhibited
2 | MLGYNFSSFPCGTISIAPGFNFYRLYFIWVNGLAKVVW [SHLP3, small humanin-like peptide, mtDNA 1707-1821] | – | – | much greater effect | reduced levels of apoptosis | – | inhibit IGFBP-3-induced apoptosis | abrogated | –
